Where no end group is shown, it is not given here.
Test system: release of IL-5 upon T cell activation
Experiment: Fluorospot assay, IL-5 release (DK1-TCL01, US1-TCL01)
Type: cell-based, human
Conditions: head prints TCL-02 DK1; text: 25 TCL-01 DK1 lines
Summary of the method: (§1)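 A peptide counted as a hit at ≥20 SFC/10^6 cells, stimulation index ≥2 over medium, and p and Poisson ≤0.05. Cells came from TCL01 lines, raised from allergic donors' CD8-depleted PBMCs over 14 days of natural-allergen stimulation with IL-2. They were exposed to 2 μg/ml peptide or peptide mix for 20 h at 37° C.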

| Substance | IL-5-Fluorospotr % donor coverage (TCL-02 DK1) [%] |
| --- | --- |
| SKYPSGTKITFHIEKGSNDH-OH [compound 103] | 8.00 |
| SMGDDHFWAVRGGGGESFGI-OH [compound 49] | 20.00 |
| TALKKAITAMSEAQKAAKPA-OH [compound 85] | 4.00 |
| TATYGSKWLEARATFYGSNP-OH [compound 90] | 12.00 |
| TDDNEEPIAPYHFDLSGHAF-OH [compound 4] | 28.00 |
| TKGKVDPTDYFRNEQSIPPL-OH [compound 60] | 0.00 |
| TKKGNVWEVKSSKPLVGPFN-OH [compound 38] | 24.00 |
| TPDKLTGPFTVRYTTEGGTK-OH [compound 26] | 24.00 |
| TPFPHRKGVLFNIQYVNYWF-OH [compound 50] | 28.00 |
| TSAVGAATGAATAATGGYKV-OH [compound 88] | 0.00 |
| TSKLDAAYKLAYKTAEGATP-OH [compound 65] | 4.00 |
| VFDDVVPEKYTIGATYAPEE-OH [compound 35] | 0.00 |
| VKYEGDTMAEVELREHGSDE-OH [compound 32] | 0.00 |
| VPKVTFTVEKGSNEKHLAVL-OH [compound 30] | 0.00 |
| VRYTTEGGTKTEAEDVIPEG-OH [compound 12] | 8.00 |
| VVAVDIKEKGKDKWIELKES-OH [compound 25] | 4.00 |
| WGAIWRIDTPDKLTGPFTVR-OH [compound 11] | 24.00 |
| WLDAKSTWYGKPTGAGPKDN-OH [compound 1] | 24.00 |
| YASGKVWGQKYFKGNFERLA-OH [compound 58] | 4.00 |
| YFKGNFERLAITKGKVDPTD-OH [compound 59] | 0.00 |
| YHFDLSGHAFGAMAKKGDEQ-OH [compound 5] | 24.00 |
| YIITPTNVSHIQSAVVSGRR-OH [compound 46] | 0.00 |
| YLALLVKYAAGDGNIVAVDI-OH [compound 105] | 12.00 |

Test system: release of IFN-γ upon T cell activation
Experiment: Fluorospot assay, IFN-γ release (DK1-TCL01, US1-TCL01)
Type: cell-based, human
Conditions: head prints TCL-02 DK1; 17 TCL-01 DK1 lines
Summary of the method: as §1

| Substance | IFN-gamma % donor coverage (TCL-02 DK1) [%] |
| --- | --- |
| SKYPSGTKITFHIEKGSNDH-OH [compound 103] | 4.00 |
| SMGDDHFWAVRGGGGESFGI-OH [compound 49] | 12.00 |
| TALKKAITAMSEAQKAAKPA-OH [compound 85] | 0.00 |
| TATYGSKWLEARATFYGSNP-OH [compound 90] | 4.00 |
| TDDNEEPIAPYHFDLSGHAF-OH [compound 4] | 4.00 |
| TKGKVDPTDYFRNEQSIPPL-OH [compound 60] | 0.00 |
| TKKGNVWEVKSSKPLVGPFN-OH [compound 38] | 4.00 |
| TPDKLTGPFTVRYTTEGGTK-OH [compound 26] | 4.00 |
| TPFPHRKGVLFNIQYVNYWF-OH [compound 50] | 8.00 |
| TSAVGAATGAATAATGGYKV-OH [compound 88] | 0.00 |
| TSKLDAAYKLAYKTAEGATP-OH [compound 65] | 4.00 |
| VFDDVVPEKYTIGATYAPEE-OH [compound 35] | 0.00 |
| VKYEGDTMAEVELREHGSDE-OH [compound 32] | 0.00 |
| VPKVTFTVEKGSNEKHLAVL-OH [compound 30] | 0.00 |
| VRYTTEGGTKTEAEDVIPEG-OH [compound 12] | 8.00 |
| VVAVDIKEKGKDKWIELKES-OH [compound 25] | 8.00 |
| WGAIWRIDTPDKLTGPFTVR-OH [compound 11] | 8.00 |
| WLDAKSTWYGKPTGAGPKDN-OH [compound 1] | 4.00 |
| YASGKVWGQKYFKGNFERLA-OH [compound 58] | 0.00 |
| YFKGNFERLAITKGKVDPTD-OH [compound 59] | 0.00 |
| YHFDLSGHAFGAMAKKGDEQ-OH [compound 5] | 15.00 |
| YIITPTNVSHIQSAVVSGRR-OH [compound 46] | 0.00 |
| YLALLVKYAAGDGNIVAVDI-OH [compound 105] | 4.00 |

Test system: allergen specific T cells
Experiment: T cell proliferation assay (72 h) on donor derived T cell lines (TCL02/TCL03)
Type: cell-based, human
Conditions: T cell lines TCL-02 DK1, 30 donors; hit criteria SI>=2, CPM>=1000
Summary of the method: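 Overlapping 20-mer and selected 15-mer grass allergen peptides were screened for proliferation using TCL02 (day 24) or TCL03 (day 34) lines. Lines came from grass-allergic donors' CD8-depleted PBMCs, primed with natural allergen mix and expanded with irradiated autologous or allogeneic APCs, PHA-P 0.5 μg/ml and rIL-2.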

| Substance | Proliferation % donor coverage (TCL-02 DK1) [%] |
| --- | --- |
| SKYPSGTKITFHIEKGSNDH-OH [compound 103] | 36.67 |
| SMGDDHFWAVRGGGGESFGI-OH [compound 49] | 40.00 |
| TALKKAITAMSEAQKAAKPA-OH [compound 85] | 20.00 |
| TATYGSKWLEARATFYGSNP-OH [compound 90] | 26.67 |
| TDDNEEPIAPYHFDLSGHAF-OH [compound 4] | 40.00 |
| TKGKVDPTDYFRNEQSIPPL-OH [compound 60] | 13.33 |
| TKKGNVWEVKSSKPLVGPFN-OH [compound 38] | 50.00 |
| TPDKLTGPFTVRYTTEGGTK-OH [compound 26] | 13.33 |
| TPFPHRKGVLFNIQYVNYWF-OH [compound 50] | 43.33 |
| TSAVGAATGAATAATGGYKV-OH [compound 88] | 0.00 |
| TSKLDAAYKLAYKTAEGATP-OH [compound 65] | 30.00 |
| VFDDVVPEKYTIGATYAPEE-OH [compound 35] | 13.33 |
| VKYEGDTMAEVELREHGSDE-OH [compound 32] | 6.67 |
| VPKVTFTVEKGSNEKHLAVL-OH [compound 30] | 3.33 |
| VRYTTEGGTKTEAEDVIPEG-OH [compound 12] | 23.33 |
| VVAVDIKEKGKDKWIELKES-OH [compound 25] | 20.00 |
| WGAIWRIDTPDKLTGPFTVR-OH [compound 11] | 46.67 |
| WLDAKSTWYGKPTGAGPKDN-OH [compound 1] | 26.67 |
| YASGKVWGQKYFKGNFERLA-OH [compound 58] | 20.00 |
| YFKGNFERLAITKGKVDPTD-OH [compound 59] | 30.00 |
| YHFDLSGHAFGAMAKKGDEQ-OH [compound 5] | 46.67 |
| YIITPTNVSHIQSAVVSGRR-OH [compound 46] | 27.00 |
| YLALLVKYAAGDGNIVAVDI-OH [compound 105] | 16.67 |

Same assay, conditions: T cell lines TCL-02 DK1; strength of response (average relative magnitude)

| Substance | Proliferation strength (TCL-02 DK1) |
| --- | --- |
| SKYPSGTKITFHIEKGSNDH-OH [compound 103] | 6.50 |
| SMGDDHFWAVRGGGGESFGI-OH [compound 49] | 5.60 |
| TALKKAITAMSEAQKAAKPA-OH [compound 85] | 2.80 |
| TATYGSKWLEARATFYGSNP-OH [compound 90] | 3.50 |
| TDDNEEPIAPYHFDLSGHAF-OH [compound 4] | 6.40 |
| TKGKVDPTDYFRNEQSIPPL-OH [compound 60] | 2.60 |
| TKKGNVWEVKSSKPLVGPFN-OH [compound 38] | 6.60 |
| TPDKLTGPFTVRYTTEGGTK-OH [compound 26] | 2.00 |
| TPFPHRKGVLFNIQYVNYWF-OH [compound 50] | 6.70 |
| TSAVGAATGAATAATGGYKV-OH [compound 88] | 0.00 |
| TSKLDAAYKLAYKTAEGATP-OH [compound 65] | 5.70 |
| VFDDVVPEKYTIGATYAPEE-OH [compound 35] | 0.70 |
| VKYEGDTMAEVELREHGSDE-OH [compound 32] | 0.20 |
| VPKVTFTVEKGSNEKHLAVL-OH [compound 30] | 0.40 |
| VRYTTEGGTKTEAEDVIPEG-OH [compound 12] | 7.00 |
| VVAVDIKEKGKDKWIELKES-OH [compound 25] | 1.10 |
| WGAIWRIDTPDKLTGPFTVR-OH [compound 11] | 4.80 |
| WLDAKSTWYGKPTGAGPKDN-OH [compound 1] | 4.70 |
| YASGKVWGQKYFKGNFERLA-OH [compound 58] | 2.40 |
| YFKGNFERLAITKGKVDPTD-OH [compound 59] | 3.20 |
| YHFDLSGHAFGAMAKKGDEQ-OH [compound 5] | 7.80 |
| YIITPTNVSHIQSAVVSGRR-OH [compound 46] | 1.00 |
| YLALLVKYAAGDGNIVAVDI-OH [compound 105] | 1.90 |

— patent US20180207228A1, “PEPTIDE COMBINATIONS AND USES THEREOF FOR TREATING GRASS ALLERGY” (ALK-Abelló A/S, priority 2015, published 2018)
